Data reported in US11230538B2, “Herbicides” (SYNGENTA PARTICIPATIONS AG, priority 2016, dated 2022).

Experiments:
Type in all cases: in vivo
Setaria fabenri (SETFA) = assay: B2 Post-emergence herbicidal activity; parameters: key: 5=total damage to plant; 0=no damage to plant; details: post-emergence application, rate 1000 g/ha, evaluated after 13 days
Summary of the method: (§1)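 Visual damage score (0 = none, 5 = total) taken 13 days after treatment. Seedlings had been cultivated 8 days in pots of standard soil before being sprayed with an aqueous solution of compound in acetone/water (50:50) containing 0.5% Tween 20.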

[1] = test system: Triticum aestivium (TRZAW); assay: B2 Post-emergence herbicidal activity; parameters: key: 5=total damage to plant; 0=no damage to plant; details: post-emergence application, rate 1000 g/ha, evaluated after 13 days
Summary of the method: as §1

[2] = test system: Alopecurus myosuroides (ALOMY); assay: B2 Post-emergence herbicidal activity; parameters: key: 5=total damage to plant; 0=no damage to plant; details: post-emergence application, rate 1000 g/ha, evaluated after 13 days
Summary of the method: as §1

[3] = test system: Echinochloa crus-galli (ECHCG); assay: B1 Pre-emergence herbicidal activity; parameters: key to Pre-emergence herbicidal activity, ECHCG (damage score 0-5): 5=total damage to plant; 0=no damage to plant; details: pre-emergence application, rate 1000 g/ha, evaluated after 13 days
Summary of the method: (§2)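 Damage was rated visually on a 0–5 scale (0 no damage, 5 total damage) 13 days after treatment. Soil-sown seeds had been sprayed one day after sowing with an aqueous acetone/water (50:50) solution containing 0.5% Tween 20, then kept in a glasshouse at 24/16 °C, 14 h light, 65% humidity.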

Lolium perenne (LOLPE) [4] = assay: B2 Post-emergence herbicidal activity; details: post-emergence application, rate 1000 g/ha, evaluated after 13 days
Summary of the method: as §1

[5] = test system: Triticum aestivium (TRZAW); assay: B1 Pre-emergence herbicidal activity; parameters: key: 5=total damage to plant; 0=no damage to plant; details: pre-emergence application, rate 1000 g/ha, evaluated after 13 days
Summary of the method: as §2

[6] = test system: Alopecurus myosuroides (ALOMY); assay: B1 Pre-emergence herbicidal activity; parameters: key: 5=total damage to plant; 0=no damage to plant; details: pre-emergence application, rate 1000 g/ha, evaluated after 13 days
Summary of the method: as §2

Avena fatua (AVEFA) [7] = assay: B1 Pre-emergence herbicidal activity; parameters: key: 5=total damage to plant; 0=no damage to plant; details: pre-emergence application, rate 1000 g/ha, evaluated after 13 days
Summary of the method: as §2

Avena fatua (AVEFA) [8] = assay: B2 Post-emergence herbicidal activity; details: post-emergence application, rate 1000 g/ha, evaluated after 13 days
Summary of the method: as §1

Setaria fabenr (SETFA) = assay: B1 Pre-emergence herbicidal activity; parameters: key to Pre-emergence herbicidal activity, SETFA (damage score 0-5): 5=total damage to plant; 0=no damage to plant; details: pre-emergence application, rate 1000 g/ha, evaluated after 13 days
Summary of the method: as §2

[9] = test system: Echinochloa crus-galli (ECHCG); assay: B2 Post-emergence herbicidal activity; parameters: key to Post-emergence herbicidal activity, ECHCG (damage score 0-5): 5=total damage to plant; 0=no damage to plant; details: post-emergence application, rate 1000 g/ha, evaluated after 13 days
Summary of the method: as §1

Lolium perenne (LOLPE) [10] = assay: B1 Pre-emergence herbicidal activity; parameters: key to Pre-emergence herbicidal activity, LOLPE (damage score 0-5): 5=total damage to plant; 0=no damage to plant; details: pre-emergence application, rate 1000 g/ha, evaluated after 13 days
Summary of the method: as §2

Row | Compound | Post-emergence herbicidal activity, SETFA (damage score 0-5) (Setaria fabenri (SETFA)) | Post-emergence herbicidal activity, TRAZW (damage score 0-5) [1] | Post-emergence herbicidal activity, ALOMY (damage score 0-5) [2] | Pre-emergence herbicidal activity, ECHCG (damage score 0-5) [3] | Post-emergence herbicidal activity, LOLPE (damage score 0-5) (Lolium perenne (LOLPE) [4]) | Pre-emergence herbicidal activity, TRAZW (damage score 0-5) [5] | Pre-emergence herbicidal activity, ALOMY (damage score 0-5) [6] | Pre-emergence herbicidal activity, AVEFA (damage score 0-5) (Avena fatua (AVEFA) [7]) | Post-emergence herbicidal activity, AVEFA (damage score 0-5) (Avena fatua (AVEFA) [8]) | Pre-emergence herbicidal activity, SETFA (damage score 0-5) (Setaria fabenr (SETFA)) | Post-emergence herbicidal activity, ECHCG (damage score 0-5) [9] | Pre-emergence herbicidal activity, LOLPE (damage score 0-5) (Lolium perenne (LOLPE) [10])
1 | CCC(=O)N(CC#N)c1ccc(-c2cncc(F)c2)nc1C(F)(F)F [Compound C57] | 4 | 0 | 0 | 3 | 2 | 0 | 0 | 1 | 2 | 4 | 4 | 0
2 | O=C(Nc1ccc(-c2cncnc2)nc1C(F)(F)F)C(Cl)Cl [Compound C65] | 5 | 0 | 0 | 4 | 3 | 0 | 0 | 3 | 4 | 3 | 5 | 2
3 | COCC(=O)N(CC1CC1)c1ccc(-c2cncc(F)c2)nc1C(F)(F)F [Compound C80] | 5 | 1 | 1 | 2 | 1 | 0 | 0 | 1 | 2 | 3 | 3 | 0
4 | C=CCN(C(=O)COC)c1ccc(-c2cncc(F)c2)nc1C(F)(F)F [Compound C63] | 4 | 0 | 1 | 2 | 2 | 0 | 0 | 0 | 2 | 4 | 4 | 1
5 | COCCN(C(=O)C(C)C)c1ccc(-c2cncc(F)c2)nc1C(F)(F)F [Compound C85] | 4 | 1 | 0 | 2 | 1 | 0 | 0 | 0 | 2 | 2 | 4 | 0
6 | C=CCN(C(=O)C(C)C)c1ccc(-c2cncc(F)c2)nc1C(F)(F)F [Compound C16] | 5 | 1 | 1 | 4 | 3 | 0 | 0 | 1 | 4 | 5 | 5 | 2
7 | O=C(Nc1ccc(-c2cncc(F)c2)nc1C(F)(F)F)c1cccs1 [Compound C47] | 5 | 0 | 1 | 5 | 3 | 0 | 1 | 2 | 4 | 4 | 5 | 1
8 | CSCCN(C(=O)C(C)C)c1ccc(-c2cncc(F)c2)nc1C(F)(F)F [Compound C88] | 2 | 1 | 1 | 1 | 1 | 0 | 0 | 0 | 1 | 2 | 1 | 0
